15 compounds from patent publication US20030054520A1, “Recombinant enzymes having improved NAD (H) affinity” (DEGUSSA AG, priority 2000, published 2003) can be followed below.

Each structure is given as a SMILES string.

This test relates to G38D mutein. As to the kind of experiment: Substrate spectrum: photometric reduction of keto substrates with NADH. The format is biochemical. The note with it: relative to acetophenone; 10 mM keto substrate, 0.4 mM NADH, pH 7.0, 30° C. As to the method:
It is known that the NADP(H)-dependent wild-type enzyme can reduce numerous ketones, keto esters and other carbonyl-groupcontaining compounds stereospecifically. Hereinafter, only a few selected keto compounds are tested as substrates, in order to confirm that the substrate-recognition region has not been changed in principle by the change of coenzyme binding site. For this purpose the keto compounds are tested in the following mixture (total volume of 1 ml).
10 mM keto substrate; 1 MM MgCl2.6H2O; 0.4 mM NADH; 960 μl of triethanolamine buffer, 50 mM, pH 7.0; 10 μl of enzyme (G38D mutein); partly purified (phenylsepharose; see above).
The activity is determined photometrically at 340 nm (30° C.). The following table summarizes the activity values.
`COC(=O)CC(C)=O` [Acetoacetic acid methyl ester]: the “Activity, relative” value worked out at 188%.

For `CCCCCC(C)=O` [2-Heptanone], the “Activity, relative” value was 207%.

Take `CC(=O)c1ccc(Cl)cc1` [4-chloroacetophenone]: the “Activity, relative” value was 68%.

Regarding `CCOC(=O)C(=O)CC` [2-Oxobutyric acid ethyl ester], the “Activity, relative” value was 137%.

Regarding `CCOC(=O)C(=O)C(C)C` [3-Methyl-2-oxobutyric acid ethyl ester], the “Activity, relative” value is 84%.

Consider `CCOC(=O)CC(=O)CCl` [4-Chloroacetoacetic acid ethyl ester], for which the “Activity, relative” value amounted to 228%.

For `CCOC(=O)CC(C)=O` [Acetoacetic acid ethyl ester], the “Activity, relative” value is given as 88%.

Turning to `CCC(=O)CC(=O)OC` [3-Oxovaleric acid methyl ester], the “Activity, relative” value worked out at 127%.

On to `CCOC(=O)C(C)=O` [Pyruvic acid ethyl ester], for which the “Activity, relative” value came to 260%.

On to `CC1CCCCC1=O` (stereo not drawn) [2-Methylcyclohexanone], for which the “Activity, relative” value came out at 334%.

In the case of `CC(=O)c1ccccc1` [Acetophenone], the “Activity, relative” value was determined as 100%.

Turning to `CCCCC(C)=O` [2-Hexanone], the “Activity, relative” value was 169%.

As to `CCOC(=O)C(=O)CCc1ccccc1` [Benzyl pyruvate ethyl ester], the “Activity, relative” value is on record as 13%.

Consider `COC(=O)C(=O)c1ccccc1` [Phenylglyoxylic acid methyl ester], for which the “Activity, relative” value turned out to be 10%.

As to `COC(=O)C(C)=O` [Pyruvic acid methyl ester], the “Activity, relative” value is 191%.
